Counter-ions that a name gives are not always drawn. Like-named read-outs stand apart in the source and are kept apart here.
Assays:
[1] = test system: Escherichia coli, Streptothricin-resistant; assay: cross-resistance, disc-plate agar diffusion; format: cell-based; conditions: read-out: Inhibition Zone Diameter
Sarcina lutea = assay: disc-plate agar diffusion, antibacterial spectrum; format: cell-based; conditions: Micrococcus luteus; 166 μg/ml; 25 °C; 7 mm = no zone; read-out: Inhibition Zone Diameter
[2] = test system: Escherichia coli, Neomycin-resistant; assay: cross-resistance, disc-plate agar diffusion; format: cell-based; conditions: read-out: Inhibition Zone Diameter
Serratia marcescens = assay: disc-plate agar diffusion, antibacterial spectrum; format: cell-based; conditions: 166 μg/ml, 25 °C, 7 mm = no zone, read-out: Inhibition Zone Diameter
Pseudomonas aeruginosa = assay: disc-plate agar diffusion, antibacterial spectrum; format: cell-based; conditions: 166 μg/ml, 25 °C, 7 mm = no zone, read-out: Inhibition Zone Diameter
Vibrio percolans = assay: disc-plate agar diffusion, antibacterial spectrum; format: cell-based; conditions: Comamonas terrigena; 166 μg/ml; 27 °C; 7 mm = no zone; read-out: Inhibition Zone Diameter
Staphylococcus aureus = assay: disc-plate agar diffusion, antibacterial spectrum; format: cell-based; conditions: 166 μg/ml, 25 °C, 7 mm = no zone, read-out: Inhibition Zone Diameter
Escherichia coli W-MB-60 [3] = assay: special effects spectrum, disc-plate agar diffusion; format: cell-based; conditions: WMB60, 166 μg/ml, read-out: Inhibition Zone Diameter
[4] = test system: Escherichia coli, Chloramphenicol-resistant; assay: cross-resistance, disc-plate agar diffusion; format: cell-based; conditions: read-out: Inhibition Zone Diameter
[5] = test system: Escherichia coli, Viomycin-resistant; assay: cross-resistance, disc-plate agar diffusion; format: cell-based; conditions: read-out: Inhibition Zone Diameter
Proteus vulgaris [6] = assay: disc-plate agar diffusion, antibacterial spectrum; format: cell-based; conditions: 166 μg/ml, 37 °C, 7 mm = no zone, read-out: Inhibition Zone Diameter
[7] = test system: Staphylococcus aureus (Streptomycin-Streptothricin-resistant); assay: disc-plate agar diffusion, antibacterial spectrum; format: cell-based; conditions: read-out: Inhibition Zone Diameter
[8] = test system: Escherichia coli, Oxytetracycline-resistant; assay: cross-resistance, disc-plate agar diffusion; format: cell-based; conditions: read-out: Inhibition Zone Diameter
Streptococcus faecalis = assay: disc-plate agar diffusion, antibacterial spectrum; format: cell-based; conditions: Enterococcus faecalis; 166 μg/ml; 37 °C; 7 mm = no zone; read-out: Inhibition Zone Diameter
Alcaligenes faecalis = assay: disc-plate agar diffusion, antibacterial spectrum; format: cell-based; conditions: 166 μg/ml, 37 °C, 7 mm = no zone, read-out: Inhibition Zone Diameter
Brucella bronchiseptica = assay: microbe, parasite or virus in culture; format: cell-based; conditions: Bordetella bronchiseptica, read-out: Inhibition Zone Diameter
Proteus vulgaris [9] = assay: disc-plate bioassay using Proteus vulgaris; conditions: for zone of inhibition at 100 µg/mL: read-out: disc zone size
Vibrio percolans MB-1272 = assay: disc-plate bioassay using Vibrio percolans; conditions: Comamonas terrigena; for zone of inhibition at 100 µg/mL: MB1272, read-out: disc zone size, 100γ/ml
[10] = test system: Salmonella gallinarum MB-1287; assay: disc zone bioassay of derivatives; format: cell-based; conditions: Salmonella enterica, 100γ/ml, read-out: disc zone size
From the text: (§1) Bioassay: the disc zone sizes in the following table are expressed in mm. for equal concentrations of antibiotic.
(§2) Bioassay: The disc zone sizes in the following table are expressed in mm. for equal concentrations of antibiotic.

[11] = test system: Pseudomonas stutzeri MB-1231; assay: disc zone bioassay of derivatives; format: cell-based; conditions: Stutzerimonas stutzeri, MB1231, 100γ/ml; read-out: disc zone size
From the text: (§3) Bioassay: the disc zone sizes in the following table are expressed in mm. for 100γ/ml of antibiotic.
as §1, §2

Proteus morganii 3202 = assay: mouse protection test; format: in vivo, mice; set-up: dose or concentration left out as unconfirmed; conditions: × 2 doses, subcutaneous
Experimental: Methods: The method employed in this characterization is as follows: Female white Swiss mice, average weight 20-23 grams, were infected intraperitoneally with 3-20 times the number of organisms calculated to be lethal for 50% of the infected control animals (3-20 LD50 doses). At the time of infection and again 6 hours later, therapy was given by the designated route. Controls of the virulence of the culture and the toxicity of the antibiotic for uninfected mice were included in the tests. Seven days after infection the test was considered complete and the amount of the antibiotic (I) that would be required to protect 50% of the infected and treated animals was calculated by the method of Knudsen and Curtis; J. Amer. Stat. Assoc. Vol. 42: page 282 (1947).
The method employed in these studies is the same as described above with regard to the in vivo characterization of 810A. The results of these tests are described below in Table XIb:
Administration was by subcutaneous injection. At the completion of the test period, usually seven days after administration, the amount of product required to protect 50% of the mice (ED50) from this otherwise fatal injection was calculated: […]

[12] = test system: Aerobacter cloacae MB-2646; assay: enzymatic inactivation by cell-free extract; conditions: for Antibiotic Activity Remaining: start 250 μg/ml
Experimental: The ability of Antibiotic 810A and cephalosporin C to withstand the degradative effect of the culture Aerobacter cloacae (MB-2646) was also determined. This culture is gram-negative and resistant to cephalosporin C. […] The source of the inactivating substance is a 1:160 dilution of the filtrate of an 18 hour 37° C. shake culture of Aerobacter cloacae MB-2646 in nutrient broth containing 0.2% yeast extract. Table XIV, infra, indicates the percent inactivation of Antibiotic 810A, cephalothin, cephaloridine and cephalosporin C on Vibrio percolans (MB-1272) via this method:
Using the same assay procedure as described above, Table XV, infra, indicates the relative resistance of Antibiotic 810A to enzymatic inactivation by Aerobacter cloacae. The starting concentration is 250 μg./ml. Results are expressed in μg./ml.

Proteus morganii 356 [13] = assay: mouse protection test, clinical isolate; format: in vivo, mice; conditions: subcutaneous × 2 doses
From the text: In addition to the aforementioned in vivo trials of the product, a clinical isolate of Proteus morganii 356 which is resistant to cephalosporins and capable of degrading cephalosporin C, was employed in a mouse protection test performed in the same manner as reported above.

Escherichia coli W-MB-60 [14] = assay: disc zone bioassay of derivatives; format: cell-based; conditions: WMB60, 100γ/ml, read-out: disc zone size
From the text: as §3, §2

Escherichia coli 236 = assay: bacterial inactivation; conditions: 4 hours; assayed on B. subtilis (MB-964)
Experimental: (§4) These cultures are: Escherichia coli 236, Proteus morganii 251, Proteus morganii 356 and Proteus mirabilis 241. […] In conducting the assay, individual mixtures of the organisms and one of the antibiotics were sampled after four hours incubation and assayed for residual antibiotic activity. The procedure is the same assay method as described above against Alcaligenes faecalis MB-9 and A. viscosus MB-12.

Proteus mirabilis 241 = assay: bacterial inactivation; conditions: 4 hours; assayed on B. subtilis (MB-964)
Experimental: as §4

Proteus morganii 356 [15] = assay: bacterial inactivation; conditions: 4 hours; assayed on B. subtilis (MB-964)
Experimental: as §4

Proteus morganii 251 = assay: bacterial inactivation; conditions: 4 hours; assayed on B. subtilis (MB-964)
Experimental: as §4

[16] = test system: Alcaligenes viscosus MB-12; assay: bacterial inactivation by washed bacterial cells; conditions: 4 hour; assayed on B. subtilis (MB-964); start 4 mg/ml
[17] = test system: Alcaligenes faecalis MB-9; assay: bacterial inactivation by washed bacterial cells; conditions: start 4 mg/ml
[18] = 2 hour, assayed on B. subtilis 964
[19] = 2 hour, assayed on V. percolans 1272
[20] = 2 hour, assayed on V. percolans (MB-1272)

SMILES: CO[C@@]1(NC(=O)CCC[C@@H](N)C(=O)O)C(=O)N2C(C(=O)O)=C(COC(N)=O)CS[C@@H]21 [Free Acid]
- zone of inhibition at 166 µg/mL [1]: 14 mm
- zone of inhibition at 166 µg/mL (Sarcina lutea): 10 mm
- zone of inhibition at 166 µg/mL [2]: 17 mm
- zone of inhibition at 166 µg/mL (Serratia marcescens): 7 mm
- zone of inhibition at 166 µg/mL (Pseudomonas aeruginosa): 7 mm
- zone of inhibition at 166 µg/mL (Vibrio percolans): 30 mm
- zone of inhibition at 166 µg/mL (Staphylococcus aureus): 7 mm
- zone of inhibition at 166 µg/mL (Escherichia coli W-MB-60 [3]; 0.1 M phosphate buffer pH 7, 25 °C): 29 mm
- zone of inhibition at 166 µg/mL (Escherichia coli W-MB-60 [3]; 0.1 M phosphate buffer pH 9, 25 °C): 22 mm
- zone of inhibition at 166 µg/mL (Escherichia coli W-MB-60 [3]; human blood plasma 20%, 25 °C): 22 mm
- zone of inhibition at 166 µg/mL [4]: 17 mm
- zone of inhibition at 166 µg/mL [5]: 16 mm
- zone of inhibition at 166 µg/mL (Proteus vulgaris [6]): 22 mm
- zone of inhibition at 166 µg/mL [7]: 11 mm
- zone of inhibition at 166 µg/mL [8]: 23 mm
- zone of inhibition at 166 µg/mL (Streptococcus faecalis): 7 mm
- zone of inhibition at 166 µg/mL (Alcaligenes faecalis): 27 mm
- zone of inhibition at 166 µg/mL (Brucella bronchiseptica): 24 mm

SMILES: CO[C@@]1(NC(=O)CCC[C@@H](N)C(=O)O)C(=O)N2C(C(=O)O)=C(CSC(=N)N)CS[C@@H]21 [S-[7β-(D-5-amino-5-carboxyvaleramido)-4-carboxy-7-methoxy-3-cephem-3-yl-methyl]thiouronium]
- zone of inhibition at 100 µg/mL (Proteus vulgaris [9]): 17 mm
- zone of inhibition at 100 µg/mL (Vibrio percolans MB-1272): 27 mm
- zone of inhibition at 100 µg/mL [10]: 23 mm
- zone of inhibition at 100 µg/mL [11]: 22 mm

SMILES: COC(=Cc1ccc(O)cc1)C(=O)OCC1=C(C(=O)O)N2C(=O)[C@](NC(=O)CCC[C@@H](N)C(=O)O)(OC)[C@H]2SC1 [7β-(D-5-amino-5-carboxyvaleramido)-3-(α-methoxy-p-hydroxycinnamoyloxymethyl)-7-methoxy-3-cephem-4-carboxylic acid]
- IC (25 mm zone) (Proteus vulgaris [9]; read-out: concentration giving a 25 mm zone (bioassay potency)): 167 µg/mL

SMILES: O=C(Cc1cccs1)N[C@@H]1C(=O)N2C(C(=O)[O-])=C(C[n+]3ccccc3)CS[C@H]12 [Cephaloridine]
- protection (Proteus morganii 3202): failed to protect
- Antibiotic Activity Remaining [12, 18]: < 10 µg/mL
- Antibiotic Activity Remaining [12, 19]: < 10 µg/mL
- Percent Inactivation After Incubation With Cell-Free Extract ([12]; bacterial culture filtrate, 2 h): 96%
- ED50 (average of Two Trials) (Proteus morganii 356 [13]): 9,270 μg

SMILES: CO[C@@]1(NC(=O)CCC[C@@H](N)C(=O)O)C(=O)N2C(C(=O)O)=C(COC(N)=O)CS[C@@H]21
- IC (25 mm zone) (Vibrio percolans MB-1272; MB1272, read-out: concentration giving a 25 mm zone, Vibrio percolans): 8 µg/mL

SMILES: CO[C@@]1(NC(=O)CCC[C@@H](N)C(=O)O)C(=O)N2C(C(=O)O)=C(CSc3nc(C)cs3)CS[C@@H]21 [7β-(D-5-amino-5-carboxyvaleramido)-3-(4-methylthiazol-2-ylmercaptomethyl)-7-methoxy-3-cephem-4-carboxylic acid]
- zone of inhibition at 100 µg/mL (Vibrio percolans MB-1272): 20 mm
- zone of inhibition at 100 µg/mL [11]: 13.5 mm
- zone of inhibition at 100 µg/mL (Escherichia coli W-MB-60 [14]): 14 mm

SMILES: CO[C@@]1(NC(=O)CCC[C@@H](N)C(=O)O)C(=O)N2C(C(=O)O)=C(COC(N)=O)CS[C@@H]21 [Disodium Salt of 842A]
- zone of inhibition at 100 µg/mL (Proteus vulgaris [9]): 27 mm
- zone of inhibition at 100 µg/mL (Vibrio percolans MB-1272): 18 mm
- zone of inhibition at 100 µg/mL [10]: 27 mm
- zone of inhibition at 100 µg/mL [11]: 22 mm
- zone of inhibition at 100 µg/mL (Escherichia coli W-MB-60 [14]): 18 mm

SMILES: CC(=O)OCC1=C(C(=O)O)N2C(=O)[C@@H](NC(=O)CCC[C@@H](N)C(=O)O)[C@H]2SC1 [Cephalosporin C, reference compound]
- Percent Inactivation After Incubation With Cell-Free Extract [12, 20]: 96%
- percent inactivation (Escherichia coli 236): > 99%
- percent inactivation (Proteus mirabilis 241): 72%
- percent inactivation (Proteus morganii 356 [15]): > 99%
- percent inactivation (Proteus morganii 251): > 99%
- Percent Inactivation After Incubation With Washed Bacterial Cells [16]: > 99%
- Percent Inactivation After Incubation With Washed Bacterial Cells ([17]; 3 hour, assayed on B. subtilis (MB-964)): > 99%
- Percent Inactivation After Incubation With Washed Bacterial Cells ([17]; 3 hour, assayed on V. percolans (MB-1272)): > 99%
- Percent Inactivation After Incubation With Washed Bacterial Cells ([17]; 4 hour, assayed on B. subtilis (MB-964)): > 99%

SMILES: CC(=O)OCC1=C(C(=O)O)N2C(=O)[C@@H](NC(=O)Cc3cccs3)[C@H]2SC1 [Cephalothin]
- protection (Proteus morganii 3202): failed to protect
- Percent Inactivation After Incubation With Cell-Free Extract [12, 20]: 66%
- Antibiotic Activity Remaining [12, 18]: 140 µg/mL
- Antibiotic Activity Remaining [12, 19]: 85 µg/mL
- ED50 (average of Two Trials) (Proteus morganii 356 [13]): > 20,000 μg

SMILES: CO[C@@]1(NC(=O)CCC[C@@H](N)C(=O)O)C(=O)N2C(C(=O)O)=C(CN)CS[C@@H]21 [7β-(D-5-amino-5-carboxyvaleramido)-3-(aminomethyl)-7-methoxy-3-cephem-4-carboxylic acid]
- zone of inhibition at 5 µg/mL (Vibrio percolans MB-1272; MB1272, read-out: disc zone size, 5γ/ml): 20 mm
- zone of inhibition at 100 µg/mL [10]: 21 mm
- zone of inhibition at 100 µg/mL [11]: 21 mm
